No end group written: not given here.
These sequences were tested on human primary hepatocytes (assay: LDL uptake assay (BODIPY-labelled LDL, high content imaging)). Conditions: 5 uM concentration, 4 h.
Type: cell-based
Description: The effects of putative cholesterol lowering peptides was assessed using LDL uptake assays in primary human hepatocytes from a pool of 10 healthy donors. Hepatocytes were treated with peptides as well as LDL-labelled BODIPY for 4 h. Cells were then fixed, permeabilized and imaged on an Opera Phenix high content imaging platform. LDL uptake was determined using BODIPY stain intensity.
Human primary hepatocytes were seeded into 96-well PhenoVue plates at 37K/well density and recovered overnight. The next say, hepatocytes were treated with 5 uM peptide or null control (DMSO) as well as a BODIPY-labelled LDL (Invitrogen™ Image-iT™ Low Density Lipoprotein Uptake Kit, Bodipy FL, I34359). This assay is designed to specifically detect binding and uptake of LDL through the LDL receptor internalization pathway, allowing maximum control and flexibility in experimental design. Two controls were built into the system, unlabeled LDL and heparin. Unlabeled LDL provides an optional pre-treatment to occlude cell surface receptors in advance of probing with the labeled construct, while heparin is provided as an additional control to chelate the LDL in the solution phase outside of the cells, thus preventing binding and uptake of the labeled LDL. Metformin, a type 2 diabetes drug with cholesterol lowering effects, was used as a positive control for increased LDL uptake (FIG. 1). Following peptide, control, and LDL-BODIPY treatment, cells were incubated for 4 h in a 37 C incubator with 5% CO2. Following incubation, cells were fixed with 4% paraformaldehyde for 15 min. Cells were then permeabilized and stained with DAPI to visualize nuclei. Wells were then washed with HBSS and imaged using a Perkin Elmer Opera Phenix high content imaging platform (fluorescence) at 20× magnification with 9 fields per well. BODIPY spot intensity was quantified using the Harmony image analysis software.

Row | LDL uptake in hepatocytes | Sequence
1 | increasing LDL uptake | MTAAVSLTRSPAISASCAASRSASPWAWPWTWF [SEQ ID NO: 75353]
2 | increasing LDL uptake | MMLPLWTFLERAMLLLISEVANRFKWSNGYTWKMPKA [SEQ ID NO: 36277]
3 | increasing LDL uptake | LVVRWAVLVFRSSTAALPRAAEAARRSEKWPKTSALGRRS [SEQ ID NO: 26888]

— patent US20250320254A1, “Compositions and Methods for Modulating Circulating Factors” (Flagship Pioneering Innovations VII, LLC, priority 2022, published 2025)
